Source: ChEMBL document CHEMBL1201862, “PubChem BioAssay data set” (2004)
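Cultured in 96-well plates, cells were exposed to test compound for 48 hours across five concentrations. The concentration for 50% growth inhibition is given as GI50.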 The source made the active and inactive calls. Cut-off read from the data, not from the text of the source: active = GI50 up to about 1.1 µM and inactive = higher.

Key:
Experiment in all cases: NCI tumour cell line growth inhibition, 48 h
[1] = tested on: EKVX
[2] = tested on: MOLT-4
[3] = tested on: OVCAR-8
[4] = tested on: KM12
[5] = tested on: IGROV-1
[6] = tested on: LXFL 529
[7] = tested on: SNB-75
[8] = tested on: HT-29
[9] = tested on: UACC-257
[10] = tested on: K562
[11] = tested on: UACC-62
[12] = tested on: HL-60
[13] = tested on: SK-MEL-28
[14] = tested on: M14
[15] = tested on: NCI-H23
[16] = tested on: SF-295
[17] = tested on: SF-268
[18] = tested on: M19-MEL
[19] = tested on: DLD-1
[20] = tested on: SK-MEL-5
[21] = tested on: A549
[22] = tested on: A498
[23] = tested on: KM-20L2
[24] = tested on: SK-MEL-2
[25] = tested on: NCI-H226
[26] = tested on: CCRF-CEM
[27] = tested on: OVCAR-5
[28] = tested on: LOX IMVI
[29] = tested on: SF-539
[30] = tested on: ACHN
[31] = tested on: TK-10
[32] = tested on: HCT-15
[33] = tested on: OVCAR-3
[34] = tested on: CAKI-1
[35] = tested on: OVCAR-4
[36] = tested on: NCI-H460
[37] = tested on: RPMI-8226
[38] = tested on: RXF 393
[39] = tested on: 786-0
[40] = tested on: COLO 205
[41] = tested on: SN12C
[42] = tested on: UO-31
[43] = tested on: SW-620
[44] = tested on: SNB-19
[45] = tested on: SK-OV-3
[46] = tested on: U-251
[47] = tested on: HOP-92
[48] = tested on: HOP-18
[49] = tested on: XF498
[50] = tested on: DMS-273
[51] = tested on: NCI-H522
[52] = tested on: Malme-3M
[53] = tested on: NCI/ADR-RES
[54] = tested on: HCC 2998
[55] = tested on: HCT-116
[56] = tested on: SNB-78
[57] = tested on: DMS-114
[58] = tested on: HOP-62
[59] = tested on: MCF7

SMILES: O=C(O)CN(c1ccccc1)S(=O)(=O)c1cccc([N+](=O)[O-])c1
- GI50 [1]: > 100 µM (inactive)
- GI50 [2]: > 100 µM (inactive)
- GI50 [3]: > 100 µM (inactive)
- GI50 [4]: > 100 µM (inactive)
- GI50 [5]: > 100 µM (inactive)
- GI50 [6]: > 100 µM (inactive)
- GI50 [7]: > 100 µM (inactive)
- GI50 [8]: > 100 µM (inactive)
- GI50 [9]: > 100 µM (inactive)
- GI50 [10]: > 100 µM (inactive)
- GI50 [11]: > 100 µM (inactive)
- GI50 [12]: > 100 µM (inactive)
- GI50 [13]: > 100 µM (inactive)
- GI50 [14]: > 100 µM (inactive)
- GI50 [15]: > 100 µM (inactive)
- GI50 [16]: > 100 µM (inactive)
- GI50 [17]: > 100 µM (inactive)
- GI50 [18]: > 100 µM (inactive)
- GI50 [19]: > 100 µM (inactive)
- GI50 [20]: > 100 µM (inactive)
- GI50 [21]: > 100 µM (inactive)
- GI50 [22]: > 100 µM (inactive)
- GI50 [23]: > 100 µM (inactive)
- GI50 [24]: > 100 µM (inactive)
- GI50 [25]: > 100 µM (inactive)
- GI50 [26]: > 100 µM (inactive)
- GI50 [27]: > 100 µM (inactive)
- GI50 [28]: > 100 µM (inactive)
- GI50 [29]: > 100 µM (inactive)
- GI50 [30]: > 100 µM (inactive)
- GI50 [31]: > 100 µM (inactive)
- GI50 [32]: > 100 µM
- GI50 [33]: > 100 µM (inactive)
- GI50 [34]: > 100 µM (inactive)
- GI50 [35]: > 100 µM (inactive)
- GI50 [36]: > 100 µM (inactive)
- GI50 [37]: > 100 µM (inactive)
- GI50 [38]: > 100 µM (inactive)
- GI50 [39]: > 100 µM (inactive)
- GI50 [40]: > 100 µM (inactive)
- GI50 [41]: > 100 µM (inactive)
- GI50 [42]: > 100 µM (inactive)
- GI50 [43]: > 100 µM (inactive)
- GI50 [44]: > 100 µM (inactive)
- GI50 [45]: > 100 µM (inactive)
- GI50 [46]: > 100 µM (inactive)
- GI50 [47]: > 100 µM (inactive)
- GI50 [48]: > 100 µM (inactive)
- GI50 [49]: > 100 µM (inactive)
- GI50 [50]: > 100 µM (inactive)
- GI50 [51]: > 100 µM (inactive)
- GI50 [52]: > 100 µM (inactive)

SMILES: C=C1C(=O)OC2CC(C)C3C4OC4C(O)C3(C)C(O)C12 (stereo unspecified)
- GI50 [1]: 20 µM (inactive)
- GI50 [2]: 11.9 µM (inactive)
- GI50 [3]: 28.4 µM (inactive)
- GI50 [4]: 23.5 µM (inactive)
- GI50 [5]: 18.6 µM (inactive)
- GI50 [7]: 41.7 µM (inactive)
- GI50 [8]: 27.5 µM (inactive)
- GI50 [9]: 37.8 µM (inactive)
- GI50 [10]: 20.6 µM (inactive)
- GI50 [11]: 12.6 µM (inactive)
- GI50 [12]: 13.8 µM (inactive)
- GI50 [13]: 23.6 µM (inactive)
- GI50 [15]: 14.4 µM (inactive)
- GI50 [16]: 41 µM (inactive)
- GI50 [17]: 23.8 µM (inactive)
- GI50 [18]: 21.1 µM (inactive)
- GI50 [19]: 27.3 µM (inactive)
- GI50 [20]: 38.5 µM (inactive)
- GI50 [21]: 53.5 µM (inactive)
- GI50 [22]: 16 µM (inactive)
- GI50 [23]: 14.1 µM (inactive)
- GI50 [53]: 20.7 µM (inactive)
- GI50 [24]: 25.9 µM (inactive)
- GI50 [54]: 30.8 µM (inactive)
- GI50 [25]: 30 µM (inactive)
- GI50 [26]: 12 µM (inactive)
- GI50 [27]: 64 µM (inactive)
- GI50 [28]: 14 µM (inactive)
- GI50 [55]: 15.6 µM (inactive)
- GI50 [29]: 17.9 µM (inactive)
- GI50 [32]: 22.8 µM
- GI50 [33]: 25.9 µM (inactive)
- GI50 [56]: 13.5 µM (inactive)
- GI50 [34]: 22.8 µM (inactive)
- GI50 [35]: 26.5 µM (inactive)
- GI50 [36]: 19 µM (inactive)
- GI50 [37]: 13.7 µM (inactive)
- GI50 [38]: 22.1 µM (inactive)
- GI50 [40]: 16.3 µM (inactive)
- GI50 [41]: 23 µM (inactive)
- GI50 [57]: 12.5 µM (inactive)
- GI50 [58]: 68.9 µM (inactive)
- GI50 [42]: 80.2 µM (inactive)
- GI50 [43]: 16.5 µM (inactive)
- GI50 [44]: 44.7 µM (inactive)
- GI50 [45]: 44.9 µM (inactive)
- GI50 [46]: 43.2 µM (inactive)
- GI50 [47]: 23.6 µM (inactive)
- GI50 [48]: 24.4 µM (inactive)
- GI50 [49]: 22.2 µM (inactive)
- GI50 [59]: 20.7 µM (inactive)
- GI50 [50]: 18.4 µM (inactive)
- GI50 [51]: 9.42 µM (inactive)
- GI50 [52]: 20.9 µM (inactive)
